Laboratory results as given in PMC5864073, “A D-enantiomer of the antimicrobial peptide GL13K evades antimicrobial resistance in the Gram positive bacteria Enterococcus faecalis and Streptococcus gordonii” (PLoS ONE, 2018).
Where a SMILES comes first, the peptide text is derived from it. [ ]: non-standard residue; d: D form.

Assays:
[1] = test system: E. faecalis OG1RF (wild-type); experiment: Minimal inhibitory concentration, broth dilution; type: cell-based, Enterococcus faecalis; design: key to MIC (mg/L): >: Mean MIC is above the tested concentration range (this value was set at 200 mg/L for data analysis); details: THB, 20 h, 37°C
Procedure: (§1) The minimal inhibitory concentration (MIC) assays were performed essentially as described for cationic AMPs, but using streptococcal growth-friendly THB without the addition of blood or serum components. A working stock of 1-5x10^5 CFU/ml in 90 or 100 μl THB was added to 10 or 20 μl of a 2-fold serial peptide dilution in 0.01% acetic acid and incubated for 20 h at 37°C in 96-well polypropylene plates. The OD at 600 nm (OD600) was determined in a Synergy HT plate reader (BioTek, Winooski, VT). Control wells for growth without peptide and growth medium without bacteria were included. Bacterial cell numbers in the inoculum were verified by colony count.

[2] = test system: E. faecalis OG1RF dltA (TX5427); experiment: Minimal inhibitory concentration, broth dilution; type: cell-based, Enterococcus faecalis; details: THB, 20 h, 37°C, OD600, mean ± SEM
Procedure: as §1

[3] = test system: E. faecalis OG1RF ebsG; experiment: Minimal inhibitory concentration, broth dilution; type: cell-based, Enterococcus faecalis; design: key: >: Mean MIC is above the tested concentration range (this value was set at 200 mg/L for data analysis); details: THB, 20 h, 37°C, symbol
Procedure: as §1

[4] = test system: E. faecalis OG1RF::pMSP7551+nisin; experiment: Minimal inhibitory concentration, broth dilution; type: cell-based, Enterococcus faecalis; design: key: >: Mean MIC is above the tested concentration range (this value was set at 200 mg/L for data analysis); details: E. faecalis OG1RF::pMSP7551+nisin (induced); THB, 20 h, 37°C; symbol
Procedure: as §1

[5] = test system: E. faecalis OG1RF::pMSP7551; experiment: Minimal inhibitory concentration, broth dilution; type: cell-based, Enterococcus faecalis; design: key: >: Mean MIC is above the tested concentration range (this value was set at 200 mg/L for data analysis); details: E. faecalis OG1RF::pMSP7551 (un-induced); THB, 20 h, 37°C; symbol
Procedure: as §1

[6] = test system: E. faecalis TX5128 (gelE-, SprE-); experiment: Minimal inhibitory concentration, broth dilution; type: cell-based, Enterococcus faecalis; design: key: >: Mean MIC is above the tested concentration range (this value was set at 200 mg/L for data analysis); details: THB, 20 h, 37°C
Procedure: as §1

[7] = test system: vancomycin-resistant E. faecalis V583; experiment: Minimal inhibitory concentration, broth dilution; type: cell-based, Enterococcus faecalis; design: key: >: Mean MIC is above the tested concentration range (this value was set at 200 mg/L for data analysis); details: THB, 20 h, 37°C, symbol
Procedure: as §1

[8] = test system: S. gordonii DL1 (wild-type); experiment: Minimal inhibitory concentration, broth dilution; type: cell-based, Streptococcus gordonii; design: key: >: Mean MIC is above the tested concentration range (this value was set at 200 mg/L for data analysis); details: THB, 20 h, 37°C
Procedure: as §1

[9] = test system: S. gordonii DL1 atlS; experiment: Minimal inhibitory concentration, broth dilution; type: cell-based, Streptococcus gordonii; details: THB, 20 h, 37°C, OD600, mean ± SEM
Procedure: as §1

[10] = test system: S. gordonii DL1 dltA; experiment: Minimal inhibitory concentration, broth dilution; type: cell-based, Streptococcus gordonii; details: THB, 20 h, 37°C, OD600, mean ± SEM
Procedure: as §1

[11] = test system: wild-type E. faecalis; experiment: Bactericidal activity in sodium phosphate buffer; type: cell-based, Enterococcus faecalis; details: 10^8 CFU/ml wild-type E. faecalis, no energy source, 10 mM sodium-phosphate pH 7.4, 2 h, 37°C, spotted on THA; D N = 4, L N = 3
Procedure: These assays were performed according to our established protocol with some modifications. Cells were washed three times in 0.9% NaCl and five μl of washed cells (10^9 CFU/ml) were added to the peptides diluted 2-fold (128 to 4 mg/L) in 45 μl of 10 mM sodium-phosphate, pH 7.4. The samples were incubated at 37°C for 2 h and 10 μl were then spotted on THA plates to assess bactericidal activity.

[12] = test system: conditioned supernatant of protease-deficient E. faecalis (TX5128); experiment: Proteolysis of peptide by conditioned culture supernatant (P. aeruginosa Xen41 bioassay); type: in vitro ADME, Enterococcus faecalis; details: conditioned sterile-filtered supernatant of protease-deficient E. faecalis TX5128, peptide 32 mg/L, 2 h, 37°C; bioluminescence read-out after 15 min; three independent experiments
Procedure: (§2) To test proteolytic processing of GL13K peptides, overnight bacterial cultures were centrifuged (5 min, 13,000 g) and the conditioned supernatants were sterile-filtered (0.22 μm, Corning). Filtered supernatant (16.8 μl) was incubated with 3.2 μl (3.2 μg) peptide at 37°C for 2 h to allow bacterial proteases in the supernatant to process the peptide. To determine residual peptide activity, 70 μl of 10 mM sodium phosphate buffer, pH 7.4 was added to each sample and then supplemented with 10 μl (10^8 CFU) of bioluminescent Pseudomonas aeruginosa Xen41 (Caliper Lifesciences; now Perkin Elmer, MA) that had been washed three times in 0.9% NaCl (final maximal peptide concentration 32 mg/L). Viability of the indicator bacteria was determined after 15 min incubation at 37°C by determining bioluminescence in a Synergy HT plate reader. The luminescence detected in the absence of added peptide was used as a measure of 100% proteolysis.
(§3) Fig 1 Relative proteolysis of GL13K peptides. (A): Wild-type (OG1RF) or the protease-negative strain (TX5128) of E. faecalis was cultured on THA containing 3% gelatin. Gelatinase activity was visualized as a turbid halo around the bacterial colonies; (B): L-GL13K (L) or D-GL13K (D) (32 mg/L) was incubated with conditioned supernatant of wild-type (OG1RF) or the protease-negative strain (TX5128) of E. faecalis for 2 h. Residual peptide activity was determined by adding bioluminescent P. aeruginosa Xen41 to the mixture. Bioluminescence from surviving bacteria was used as a measure of proteolytic degradation of each peptide and expressed relative to bacterial bioluminescence in the absence of peptides (equivalent to 100% proteolysis). Data are shown as mean ± SEM from three independent experiments and were analyzed by paired t-test for each strain. n.s., not significant.

[13] = test system: conditioned supernatant of wild-type E. faecalis (OG1RF); experiment: as above; type: in vitro ADME, Enterococcus faecalis; details: conditioned sterile-filtered supernatant of E. faecalis OG1RF, peptide 32 mg/L, 2 h, 37°C; bioluminescence read-out after 15 min; three independent experiments
Procedure: as §2, §3

[14] = test system: E. faecalis OG1RF; experiment: Triton X-100 induced bacterial autolysis assay; type: cell-based, Enterococcus faecalis; details: PBS with 0.05% Triton X-100, peptide 100 mg/L, OD600 for 180 min
Procedure: (§4) The lysis assay followed an established protocol for bacterial autolysis with minor modifications. Exponentially growing cells were washed twice in PBS then washed once in ice-cold dH2O. The bacteria were incubated in PBS with 0.05% Triton X-100 and peptides at a concentration of 100 mg/L. OD600 was monitored spectrophotometrically for 180 min. In some experiments, the cells were incubated with the peptides for 2h in PBS+0.05% Triton X-100 and then cultured on THA to enumerate surviving cells.
(§5) Fig 2 Effect of GL13K peptides on Triton X-100 induced autolysis. E. faecalis OG1RF (A) or the autolysis-deficient strain TX5128 (B) were incubated in PBS with 0.05% Triton X-100 in the absence of peptide (control) or in the presence of 100 mg/L of L-GL13K or D-GL13K (D). The OD600 was recorded for 180 min and expressed as a percent of starting OD600 of the control sample. (C): Bactericidal activity of GL13K peptides in PBS+0.05% Triton X-100. E. faecalis OG1RF were incubated with 0.05% Triton X-100 in the absence of peptide (Ctrl) or with L-GL13K or D-GL13K for 2h. Surviving CFU were enumerated and are shown as mean ± SEM (N = 5). Peptide treated samples were compared to the untreated control by Kruskal-Wallis test with Dunn’s multiple comparison post-test. n.s., not significant.

[15] = test system: E. faecalis OG1RF; experiment: Bactericidal activity in PBS+0.05% Triton X-100; type: cell-based, Enterococcus faecalis; details: PBS+0.05% Triton X-100, peptide 100 mg/L, 2 h, CFU on THA, N = 5
Procedure: as §4, §5

[16] = test system: E. faecalis OG1RF biofilm; experiment: Biofilm assay (Calgary device); type: cell-based, Enterococcus faecalis; details: 24 h biofilm of OG1RF, peptide 100 mg/L, 4 h, CFU enumerated
Procedure: (§6) E. faecalis OG1RF, TX5427 or V583 were cultured in a Calgary device for 24h in THB. Biofilms were treated with peptides (100 mg/L) for 4h and surviving cells were sonicated and plated on THA for enumeration of CFUs.
(§7) Fig 3 Effect of GL13K peptides on biofilms of E. faecalis. Twenty-four hour biofilms of OG1RF; OG1RF dltA or V583 were treated with 100 mg/L of L-GL13K (L) or D-GL13K (D). Surviving CFU were enumerated from each peg and expressed relative to the mean CFU recovered from pegs of wild-type cells treated with buffer alone (OG1RF—C). Data from 2–4 experiments are expressed as mean ± SEM (N = 6–13). V583 was only treated with D-GL13K.

[17] = test system: E. faecalis OG1RF dltA (TX5427) biofilm; experiment: Biofilm assay (Calgary device); type: cell-based, Enterococcus faecalis; details: 24 h biofilm of OG1RF dltA, peptide 100 mg/L, 4 h, CFU relative to the wild-type biofilm
Procedure: as §6, §7

[18] = test system: E. faecalis dltA mutant (TX5427); experiment: Selection for peptide resistance, serial MIC assays; type: cell-based, Enterococcus faecalis; details: serial passage at 0.5 x MIC, L-GL13K after two rounds, D-GL13K after seven rounds, three experiments
Procedure: (§8) To investigate potential resistance development against the GL13K peptides, dilutions of the peptides were prepared and incubated as described for the MIC assay. The next day (day 0), the MIC was recorded and the culture in the well with the highest peptide concentration that allowed growth (i.e 0.5 x MIC) was diluted 1:100 and used as an inoculum for the next round of selection in a new MIC assay and so forth until a stable plateau of resistance was reached.
(§9) Fig 4 Development of resistance in E. faecalis. MICs for L-GL13K (circles) and D-GL13K (squares) were recorded on consecutive days using E. faecalis OG1RF (wild-type) (open symbols) (D-enantiomer only) and dltA (closed symbols). The MIC for each day is expressed relative to the starting MIC (day 0). Data from three experiments are shown as mean ± SEM.

[19] = test system: S. gordonii DL1 (wild-type); experiment: as above; type: cell-based, Streptococcus gordonii; details: repeated treatment with sub-inhibitory concentrations, 2–3 experiments
Procedure: as §8
as §9, with “6” for “4”, “S. gordonii.” for “E. faecalis.”, “S. gordonii DL1” for “E. faecalis OG1RF”, “2–3” for “three”, “range.” for “SEM.”

[20] = test system: S. gordonii dltA mutant; experiment: as above; type: cell-based, Streptococcus gordonii; details: repeated treatment with sub-inhibitory concentrations, 2–3 experiments
Procedure: as §8
as §9, with “6” for “4”, “S. gordonii.” for “E. faecalis.”, “S. gordonii DL1” for “E. faecalis OG1RF”, “2–3” for “three”, “range.” for “SEM.”

[21] = test system: vancomycin-resistant E. faecalis V583 biofilm; experiment: Biofilm assay (Calgary device); type: cell-based, Enterococcus faecalis; details: 24 h biofilm of V583, peptide 100 mg/L, 4 h, CFU enumerated
Procedure: as §6, §7

[22] = test system: wild-type E. faecalis (OG1RF); experiment: Selection for peptide resistance, serial MIC assays; type: cell-based, Enterococcus faecalis; details: serial passage at 0.5 x MIC
Procedure: as §8, §9

Structure (SMILES)	Peptide concentration required for complete killing [11] [mg/L]	Proteolysis of peptide (loss of activity against bioluminescent P. aeruginosa Xen41) [12]	Effect on Triton X-100 induced autolysis (OD600) [14]	Reduction of viable cells under autolysis conditions [15]	Reduction of viable biofilm CFU [16]	Reduction of viable biofilm CFU [17]	Increase of MIC relative to starting MIC (day 0) [18] [fold]	Increase of MIC relative to starting MIC (day 0) [19]	Increase of MIC relative to starting MIC (day 0) [20]	other results
CC[C@H](C)[C@H](NC(=O)[C@H](CCCCN)NC(=O)CN)C(=O)N[C@H](C(=O)N[C@@H](CCCCN)C(=O)N[C@@H](CC(C)C)C(=O)N[C@@H](CCCCN)C(=O)N[C@@H](C)C(=O)N[C@@H](CO)C(=O)N[C@@H](CC(C)C)C(=O)N[C@@H](CCCCN)C(=O)N[C@@H](CC(C)C)C(=O)N[C@@H](CC(C)C)C(N)=O)[C@@H](C)CC [L-GL13K, Gly-Lys-Ile-Ile-Lys-Leu-Lys-Ala-Ser-Leu-Lys-Leu-Leu-NH2] (H-GKIIKLKASLKLL-NH2; N-terminus assumed)	48 ± 23	did not show significant proteolysis	somewhat reduced autolysis	small, yet non-significant, reduction of cell numbers	ineffective	three orders of magnitude	8	6 fold	16 fold	MIC ([1]; 1-5x10^5 CFU/ml, OD600, mean ± SEM): > 512 µg/mL; MIC (mg/L) ([1]; OD600, symbol): >; MIC [2]: 70 ± 17 µg/mL; MIC (mg/L) [3]: >; MIC (mg/L) [4]: >; MIC (mg/L) [5]: >; MIC (mg/L) ([6]; OD600, mean ± SEM): did not inhibit growth; MIC (mg/L) ([6]; symbol): >; MIC (mg/L) [7]: >; MIC (mg/L) ([8]; OD600, mean ± SEM): resistant; MIC (mg/L) ([8]; symbol): >; MIC [9]: 63 ± 8 µg/mL; MIC [10]: 11 ± 3 µg/mL; Proteolysis of peptide (loss of activity against bioluminescent P. aeruginosa Xen41) [13]: almost complete proteolysis
CC[C@@H](C)[C@@H](NC(=O)[C@@H](CCCCN)NC(=O)CN)C(=O)N[C@@H](C(=O)N[C@H](CCCCN)C(=O)N[C@H](CC(C)C)C(=O)N[C@H](CCCCN)C(=O)N[C@H](C)C(=O)N[C@H](CO)C(=O)N[C@H](CC(C)C)C(=O)N[C@H](CCCCN)C(=O)N[C@H](CC(C)C)C(=O)N[C@H](CC(C)C)C(N)=O)[C@H](C)CC [D-GL13K] (H-G[dK][dI][dI][dK][dL][dK][dA][dS][dL][dK][dL][dL]-NH2; N-terminus and C-terminus assumed)	15 ± 10	did not show significant proteolysis	no autolysis was seen	3 log10	3 log10	highly effective	2	little change of the MIC	little change of the MIC	Reduction of viable biofilm CFU [21]: 3 log10; Increase of MIC relative to starting MIC (day 0) [22]: did not substantially increase the MIC
